This note sets out measurements from patent US20260200890A1, “ADAR1 INHIBITORS AND METHODS OF USING THE SAME” (AVAMMUNE THERAPEUTICS INC., priority 2022, published 2026).

SMILES strings stand for the structures. pEC50: −log10 of the molar value. A value given as a limit tells only on which side of the number the result lay.

This assay concerns the target T1, ADAR1 (Homo sapiens, UniProt P55265).
T1 construct: endogenous in cells; host or cells: p110 KO A549 dual cells
T1 sequence (P55265 1-1226): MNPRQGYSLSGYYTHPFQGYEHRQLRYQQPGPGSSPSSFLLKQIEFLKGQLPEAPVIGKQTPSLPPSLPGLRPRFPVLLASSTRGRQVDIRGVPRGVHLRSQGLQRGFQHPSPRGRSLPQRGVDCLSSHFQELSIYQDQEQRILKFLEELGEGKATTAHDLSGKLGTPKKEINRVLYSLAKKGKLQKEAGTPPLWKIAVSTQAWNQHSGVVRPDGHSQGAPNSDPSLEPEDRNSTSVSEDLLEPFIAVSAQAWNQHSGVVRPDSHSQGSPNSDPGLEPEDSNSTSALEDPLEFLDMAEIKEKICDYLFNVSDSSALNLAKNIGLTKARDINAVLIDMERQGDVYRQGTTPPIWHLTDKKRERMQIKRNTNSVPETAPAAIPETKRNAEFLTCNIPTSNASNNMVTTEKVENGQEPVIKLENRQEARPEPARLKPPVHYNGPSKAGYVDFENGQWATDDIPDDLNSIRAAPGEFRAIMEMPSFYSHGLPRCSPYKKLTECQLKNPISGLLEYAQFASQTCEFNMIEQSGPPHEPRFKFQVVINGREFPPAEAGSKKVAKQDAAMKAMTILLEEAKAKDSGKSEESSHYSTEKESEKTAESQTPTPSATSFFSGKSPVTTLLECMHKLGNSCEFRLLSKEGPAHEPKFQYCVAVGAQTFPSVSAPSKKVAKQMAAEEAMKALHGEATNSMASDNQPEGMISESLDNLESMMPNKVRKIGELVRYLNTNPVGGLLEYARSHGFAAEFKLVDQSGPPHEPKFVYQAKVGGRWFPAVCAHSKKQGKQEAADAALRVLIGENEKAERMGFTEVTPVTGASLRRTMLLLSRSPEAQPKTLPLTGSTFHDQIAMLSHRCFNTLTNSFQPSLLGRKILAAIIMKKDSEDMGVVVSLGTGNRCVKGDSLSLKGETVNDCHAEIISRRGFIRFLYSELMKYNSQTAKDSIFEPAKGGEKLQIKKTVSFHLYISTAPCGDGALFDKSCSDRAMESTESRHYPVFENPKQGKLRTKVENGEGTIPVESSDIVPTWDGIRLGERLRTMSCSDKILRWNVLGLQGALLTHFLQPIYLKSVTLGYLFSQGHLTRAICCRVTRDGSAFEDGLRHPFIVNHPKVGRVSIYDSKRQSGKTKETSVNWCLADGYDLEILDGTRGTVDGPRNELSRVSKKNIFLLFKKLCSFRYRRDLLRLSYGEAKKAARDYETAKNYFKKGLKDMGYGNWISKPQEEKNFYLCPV
The assay is described as follows: ADAR1 Inhibition Assay (IFN fold-induction, Quanti-Luc luminescence, p110 KO A549 dual cells). Format: cell-based. The following applies: IFN fold-induction vs DMSO, 24 and 48 h. In outline: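 p110 KO A549 dual cells (20,000/well) in supplemented DMEM, treated next day with compound at 1% final DMSO for 24 and 48 h at 37 °C, 5% CO2. Supernatant luminescence read with Quanti-Luc; IFN fold-induction = sample RLU/mean DMSO RLU, used for EC50.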

In the case of `CCOC(=O)c1cc(-c2ccccc2)sc1NC(=O)Cn1cc(CN(c2cccc(N)c2)S(C)(=O)=O)nn1` [Compound 353], the pEC50 – broadly, the EC50 on a negative log10 scale, so that one unit is a factor of ten – is less than 4.00.

As to `CCOC(=O)c1sc(-c2ccccc2)cc1NC(=O)COC(=O)c1cccc(NS(C)(=O)=O)c1` [Compound 354], the pEC50 was less than 4.00.

Regarding `CCOC(=O)c1cc(-c2ccccc2)sc1NC(=O)Cn1cc(CSc2cccc(NS(C)(=O)=O)c2)nn1` [Compound 360], the pEC50 is less than 4.00.

As for `CCOC(=O)c1cc(-c2ccccc2)sc1NC(=O)Cn1cc(CS(=O)(=O)c2cccc(NS(C)(=O)=O)c2)nn1` [Compound 362], the pEC50 is less than 4.00.

`CCOC(=O)c1cc(-c2ccccc2)sc1NC(=O)CNC(=O)Cc1ccc(OS(C)(=O)=O)c(NS(C)(=O)=O)c1` [Compound 368]: the pEC50 is less than 4.00.

In turn, `CCOC(=O)c1sc(-c2ccccc2)cc1NC(=O)COC(=O)c1cccc(P(=O)(OCC)OCC)c1` [Compound 370] had a pEC50 of less than 4.00.

`CCOC(=O)c1cc(-c2ccccc2)sc1NC(=O)CNC(=O)Cc1cccc(S(N)(=O)=O)c1` [Compound 371] gave a pEC50 of less than 4.00.

The molecule `CCOC(=O)c1cc(-c2ccccc2)sc1NC(=O)COC(=O)c1nonc1NS(C)(=O)=O` [Compound 374] had a pEC50 of less than 4.00.

As to `CCOC(=O)c1ccnc(-c2ccccc2)c1NC(=O)COC(=O)c1cccc(NS(C)(=O)=O)c1` [Compound 375], the pEC50 is less than 4.00.

For `CCOC(=O)c1cc(-c2ccccc2)sc1NC(=O)CNC(=O)/C=C/c1cccc(NS(C)(=O)=O)c1` [Compound 377], the pEC50 was less than 4.00.

In turn, `CCOC(=O)c1cc(-c2ccccc2)sc1NC(=O)COC(=O)c1ccc2cc(NS(C)(=O)=O)ccc2c1` [Compound 378] had a pEC50 of less than 4.00.

With `CCOC(=O)c1cc(-c2ccccc2)sc1NC(=O)COC(=O)c1cccc(S(=O)(=O)NC(C)(C)C)c1` [Compound 379], the pEC50 is less than 4.00.

Consider `CCOC(=O)c1cc(-c2ccccc2)ncc1NC(=O)COC(=O)c1cccc(P(=O)(OCC)OCC)c1` [Compound 381], for which the pEC50 is less than 4.00.

Molecule `CCOC(=O)c1cc(-c2ccccc2)ncc1NC(=O)COC(=O)c1cccc(P(=O)(O)O)c1` [Compound 382] had a pEC50 of less than 4.00.

On to `CCOC(=O)c1cc(-c2ccccc2)sc1NC(=O)C1CCCN1C(=O)c1cccc(P(=O)(OCC)OCC)c1` (stereo not shown) [Compound 383], for which the pEC50 was less than 4.00.

On to `CCOC(=O)c1cc(-c2ccc(P(=O)(OCC)OCC)cc2)sc1NC(=O)COC(=O)c1cccc(P(=O)(OCC)OCC)c1` [Compound 390], for which the pEC50 was less than 4.00.

`CCOC(=O)c1cc(P(=O)(O)O)sc1NC(=O)COC(=O)c1cccc(NS(C)(=O)=O)c1` [Compound 391] had a pEC50 of less than 4.00.

`CCOC(=O)c1cc(-c2ccccc2)sc1NC(=O)CN(C)C(=O)c1cccc(P(=O)(OCC)OCC)c1` [Compound 392] gave a pEC50 of 4.00 to 4.30.

In the case of `CCOC(=O)c1cc(-c2ccccc2)sc1NC(=O)[C@@H]1CCCN1C(=O)c1cccc(P(=O)(OCC)OCC)c1` [Compound 393], the negative logarithm of the EC50 (pEC50) was less than 4.00.

For the molecule `CCOC(=O)c1cc(-c2ccccc2)sc1NC(=O)[C@H]1CCCN1C(=O)c1cccc(P(=O)(OCC)OCC)c1` [Compound 394], the pEC50 was less than 4.00.

In turn, `CCOC(=O)c1cc(-c2ccccc2)sc1NC(=O)Cn1cc(CNC(=O)c2cccc(P(=O)(OCC)OCC)c2)nn1` [Compound 401] had a pEC50 of less than 4.00.

For `CCOC(=O)c1cc(-c2ccccc2)sc1NC(=O)C1CCCN1C(=O)c1cccc(P(=O)(O)O)c1` (stereo not shown) [Compound 404], the pEC50 is 4.00 to 4.30.

The molecule `CCOC(=O)c1nc(-c2ccccc2)oc1NC(=O)COC(=O)c1cccc(P(=O)(OCC)OCC)c1` [Compound 407] had a pEC50 of 4.00 to 4.30.

In the case of `CCOC(=O)c1cc(-c2ccccc2)[nH]c1NC(=O)CNC(=O)c1cccc(P(=O)(OCC)OCC)c1` [Compound 408], the pEC50 is 4.00 to 4.30.

The molecule `CCNC(=O)c1cc(-c2ccccc2)sc1NC(=O)CNC(=O)c1cccc(NS(C)(=O)=O)c1` [Compound 410] gave a pEC50 of 4.00 to 4.30.
